According to patent publication US11185520B2, “Composition comprising at least one water-soluble pharmaceutically acceptable salt of elafibranor having improved intestinal absorption” (NASHPHARM, priority 2016, dated 2021):
Converted amounts (≈) assume the structure as drawn. “And” between values parts separate entries of the source, which are not always exact repeats. Equal values may be shown once.

Assays:
[1] = Thermodynamic solubility of elafibranor in aqueous medium; assay type: physicochemical
Method: The thermodynamic solubility of the basic elafibranor is studied over a period of 24 hours and 72 hours in various aqueous buffers in the presence or not of surfactants. Batch number EM0274L2 is used for this work. After 24 hours and 72 hours of incubation at ambient temperature (22°−24° C.), the solutions are sampled and then filtered over 0.2 μm polycarbonate filters in flasks for LCMS analyses, and diluting once in DMSO before stirring for 2 minutes (vortex or sonification).

[2] = Solubility test on various elafibranor salts; assay type: physicochemical; conditions: for Solubility in aqueous medium / Solubility: listed as Elafibranor (GFT505) Amorphous free basic
[3] = all clinical trials; cited from earlier work
[4] = system: non-alcoholic steatohepatitis NASH; conditions: cited from earlier work
[5] = Buffer pH 4.6, ambient temperature (22-24° C.)
[6] = Buffer pH 7.4, ambient temperature (22-24° C.)
[7] = Buffer pH 8.5, ambient temperature (22-24° C.)
[8] = Polyethylene glycol 400, ambient temperature (22-24° C.)
[9] = Propylene glycol, ambient temperature (22-24° C.)

Solubility after 24 hours [1, 5]: 44 µg/mL (≈ 0.114 mM) | Solubility after 72 hours [1, 5]: 110 μM and 0.042 mg/ml | Solubility after 24 hours [1, 6]: 194 µg/mL (≈ 0.505 mM) | Solubility after 72 hours [1, 6]: 0.234 mg/mL (≈ 0.609 mM) | Solubility after 24 hours [1, 7]: 1701 µg/mL (≈ 4.42 mM) | Solubility after 72 hours [1, 7]: 1.644 mg/mL (≈ 4.28 mM) | Solubility after 24 hours [1, 8]: 15023 µg/mL (≈ 39.1 mM) | Solubility after 72 hours [1, 8]: 15.774 mg/mL (≈ 41 mM) | Solubility after 24 hours [1, 9]: 12905 µg/mL (≈ 33.6 mM) | Solubility after 72 hours [1, 9]: 13.506 mg/mL (≈ 35.1 mM) | Solubility in an aqueous medium ([1]; in words): low | Effect of addition of cosolvent on solubility ([1]; propylene glycol or PEG 400): significantly improves the solubility | Solubility in aqueous medium ([2]; Buffer pH 4.6, ambient temperature): 44 µg/mL | Solubility in aqueous medium ([2]; Buffer pH 7.4, ambient temperature): 194 µg/mL | Solubility in aqueous medium ([2]; Buffer pH 8.5, ambient temperature): 1701 µg/mL | Solubility ([2]; Polyethylene glycol 400, ambient temperature): 15023 µg/mL | Solubility ([2]; Propylene glycol, ambient temperature): 12905 µg/mL | Solubility (according to Ph. Eur.) ([2]; aqueous medium, ambient temperature, descriptive term): Very low solubility
SMILES: CSc1ccc(C(=O)/C=C/c2cc(C)c(OC(C)(C)C(=O)O)c(C)c2)cc1 [elafibranor, 2-[2,6 dimethyl-4-[3-[4-(methylthio)phenyl]-3-oxo-1(E)-propenyl]phenoxyl]-2-methylpropanoic acid]
Tolerance profile [3]: very good tolerance profile | Biochemical markers of hepatic malfunctioning (ALAT, ASAT, γGT, ALP) [4]: improvement
